{"source": "paper PMC13426457", "about": "“Cryo-EM structures of apo, agonist- and antagonist-bound heteromeric kainate receptors” (Science Advances, 2026)", "biological_target": "T1, GluK2 (Rattus norvegicus, UniProt P42260, A518T/I567V/C576V/C595S)", "T1 construct": "gene Grik2", "T1 sequence (P42260 32-908 A518T/I567V/C576V/C595S)": "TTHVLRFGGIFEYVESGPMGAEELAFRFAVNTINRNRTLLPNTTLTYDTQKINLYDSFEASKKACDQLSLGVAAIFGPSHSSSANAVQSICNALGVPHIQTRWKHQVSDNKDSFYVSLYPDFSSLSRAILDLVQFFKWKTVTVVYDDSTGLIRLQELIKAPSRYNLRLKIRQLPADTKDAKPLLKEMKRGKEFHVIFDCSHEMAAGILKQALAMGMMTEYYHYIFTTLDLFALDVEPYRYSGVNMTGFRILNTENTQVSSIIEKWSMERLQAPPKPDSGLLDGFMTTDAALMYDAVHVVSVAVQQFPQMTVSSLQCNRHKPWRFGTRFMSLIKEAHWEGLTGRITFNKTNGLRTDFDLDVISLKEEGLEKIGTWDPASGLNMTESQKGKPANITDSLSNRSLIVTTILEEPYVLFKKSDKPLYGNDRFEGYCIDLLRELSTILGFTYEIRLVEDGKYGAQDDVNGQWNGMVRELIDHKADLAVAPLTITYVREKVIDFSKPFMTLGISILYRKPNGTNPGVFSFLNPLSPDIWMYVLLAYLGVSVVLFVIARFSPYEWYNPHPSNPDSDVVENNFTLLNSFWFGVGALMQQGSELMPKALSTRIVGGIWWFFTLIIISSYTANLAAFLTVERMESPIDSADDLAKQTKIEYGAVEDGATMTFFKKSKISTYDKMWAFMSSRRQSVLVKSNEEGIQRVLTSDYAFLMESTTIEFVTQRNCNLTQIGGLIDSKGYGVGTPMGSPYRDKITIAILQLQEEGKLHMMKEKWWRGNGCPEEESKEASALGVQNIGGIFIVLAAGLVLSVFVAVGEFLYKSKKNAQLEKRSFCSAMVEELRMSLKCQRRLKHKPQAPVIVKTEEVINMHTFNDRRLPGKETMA", "T1 sequence (Q63273 with tags, fused parts or gaps T501A/C559V/C578S/C619I/C813A partner)": "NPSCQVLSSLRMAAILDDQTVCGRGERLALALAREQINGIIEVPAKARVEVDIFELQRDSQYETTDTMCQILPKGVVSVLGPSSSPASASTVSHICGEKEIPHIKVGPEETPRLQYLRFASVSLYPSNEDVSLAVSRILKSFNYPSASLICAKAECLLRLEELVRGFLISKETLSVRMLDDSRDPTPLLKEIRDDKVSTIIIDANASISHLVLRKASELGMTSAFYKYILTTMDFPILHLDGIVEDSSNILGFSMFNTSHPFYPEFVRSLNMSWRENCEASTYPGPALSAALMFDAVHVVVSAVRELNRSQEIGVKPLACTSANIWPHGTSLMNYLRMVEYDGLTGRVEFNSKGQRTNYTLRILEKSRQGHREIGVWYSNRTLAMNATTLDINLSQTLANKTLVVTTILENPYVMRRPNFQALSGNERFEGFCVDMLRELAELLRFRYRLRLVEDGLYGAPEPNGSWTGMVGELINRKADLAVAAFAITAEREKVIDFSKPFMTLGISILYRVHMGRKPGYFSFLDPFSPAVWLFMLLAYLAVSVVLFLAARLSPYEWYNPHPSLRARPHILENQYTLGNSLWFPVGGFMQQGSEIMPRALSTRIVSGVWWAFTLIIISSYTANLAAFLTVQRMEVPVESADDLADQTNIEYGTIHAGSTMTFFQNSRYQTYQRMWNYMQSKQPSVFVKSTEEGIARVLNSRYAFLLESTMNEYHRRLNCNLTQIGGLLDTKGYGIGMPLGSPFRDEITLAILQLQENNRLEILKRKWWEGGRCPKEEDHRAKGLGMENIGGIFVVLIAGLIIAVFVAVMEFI"}
{"compound": "Cc1cn(C[C@H](N)C(=O)O)c(=O)n(Cc2ccsc2C(=O)O)c1=O", "note": "[UBP310, (S)-1-(2-amino-2-carboxyethyl)-3-(2-carboxythiophene-3-yl-methyl)-5-methylpyrimidine-2,4-dione]", "values": [{"measurement": "% current reduction at 0.5 mM", "result": "56.2 ± 21.0 % current reduction at 0.5 mM"}]}
